These results are taken from patent US20050090485A1, “7-Arylsulfonamido-2,3,4,5-tetrahydro-1h-benzo'diazepine derivatives with 5ht6 receptor affinity for the reatment of cns disorders” (priority 2002, published 2005).

Series [1] addresses T1, human cloned 5-HT6 receptors (Homo sapiens, UniProt P50406).
T1 construct: expressed in transfected cells
The series can be described thus: 5-HT6 receptor affinity, procedures outlined in WO98/27081. The series is classed as binding. Particulars: read-out: pKi values at human cloned 5-HT6 receptors (converted). An excerpt:
Compounds can be tested following the procedures outlined in WO98/27081.

T1 sequence (P50406 whole entry): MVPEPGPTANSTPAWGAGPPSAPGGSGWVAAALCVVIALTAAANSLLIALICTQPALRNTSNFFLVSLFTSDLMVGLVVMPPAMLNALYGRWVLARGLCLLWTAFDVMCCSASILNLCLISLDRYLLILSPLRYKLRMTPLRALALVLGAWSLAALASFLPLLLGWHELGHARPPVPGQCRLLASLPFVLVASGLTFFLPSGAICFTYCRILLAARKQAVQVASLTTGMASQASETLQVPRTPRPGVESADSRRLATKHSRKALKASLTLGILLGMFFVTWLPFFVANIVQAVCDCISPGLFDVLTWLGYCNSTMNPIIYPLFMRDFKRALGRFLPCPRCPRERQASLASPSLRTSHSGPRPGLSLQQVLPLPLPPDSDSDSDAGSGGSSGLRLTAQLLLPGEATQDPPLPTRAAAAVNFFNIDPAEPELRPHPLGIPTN

For the compound `O=S(=O)(Nc1ccc2c(c1)CCNCC2)c1ccc(Br)cc1OC(F)(F)F` [Example E6, 7-(4-Bromo-2-trifuoromethoxy)phenylsulfonamido-2,3,4,5-tetrahydro-1H-benzo[d]azepine], in series [1], the Ki was under 3.16 nM. As for `O=S(=O)(Nc1ccc2c(c1)CCNCC2)c1ccc(Cl)cc1OC(F)(F)F` [Example E10, 7(4-Chloro-2-trifluoromethoxy)phenylsulfonamido-2,3,5-tetrahydro-1H-benzo[d]azepine], the Ki in series [1] was under 3.16 nM. A word on the melting point: it is the temperature of the solid-liquid transition. `Cl.O=S(=O)(Nc1ccc2c(c1)CCNCC2)c1ccc(Cl)cc1OC(F)(F)F` [Example E12, 7-(4-Chloro-2-trifluoromethoxy)phenylsulfonamido-2,3,4,5-tetrahydro-1H-benzo[d]azepine, hydrochloride] yielded a melting point of 210 to 211 °C.

In the case of `Cl.O=S(=O)(Nc1ccc2c(c1)CCNCC2)c1ccc(Br)cc1OC(F)(F)F` [Example E11, 7-(4Bromo-2-trifluoromethoxy)phenylsulfonamido-2,3,4,5-tetrahydro-1H-benzo[d]azepine, hydrochloride], the melting point was 231 to 233 °C.
